For 24 molecules, IC50 and Ki results are on record in patent US20040097594A1 (priority 1998, published 2004).

Like-named read-outs stand apart in the source and are kept apart here.

One test concerns HIV-1 (strain IIIB). As to the kind of experiment: microbe, parasite or virus in culture. The test is classed as cell-based. Conditions: lower line of each compound's entry, read-out: IC50 (MT-4 cells).
A further test addresses HIV-1 protease (Human immunodeficiency virus type 1 group M subtype B, UniProt P04585). As to the kind of experiment: biochemical.
Setting [1] is: Human immunodeficiency virus 1, 120 h, MT4 cells infected with HIV-1 strain IIIB, 5 days.
Where [2] appears, read: HIV-1 protease, upper line of each compound's entry, read-out: Ki (enzyme).
Where [3] appears, read: Human immunodeficiency virus 1, IIIB, MT4, 120 h, […].

On to `COc1ccc(S(=O)(=O)N(C[C@@H](O)[C@H](Cc2ccccc2)NC(=O)C(C)CS(C)(=O)=O)OC2CCCC2)cc1` (stereo partly drawn) [Compound 115, 1N-(3-Methylsulfonylisobutyryl)-(1S,2R)-1-benzyl-3-(cyclopentyloxy)[4-methoxyphenylsulfonyl]amino-2-hydroxypropylamine], for which the IC50 (in general, the midpoint of a concentration-inhibition curve) in the test with HIV-1 (strain IIIB) (setting [1]) lay within 500 to 1000 nM. In addition, at HIV-1 protease (setting [2]), the Ki (commonly a dissociation constant, usually derived from enzyme kinetics or from competition with a known ligand) is over 100 nM.
As for `COc1ccc(S(=O)(=O)N(C[C@@H](O)[C@H](Cc2ccccc2)NC(=O)O[C@H]2CO[C@@H]3OCC[C@@H]32)OC2CCCC2)cc1` [Compound 116], in the test with HIV-1 (strain IIIB) (setting [1]), the IC50 fell in the range of 500 to 1000 nM. The inhibition constant (Ki) at HIV-1 protease (setting [2]) is over 100 nM.
For `COc1ccc(S(=O)(=O)N(C[C@@H](O)[C@H](Cc2ccccc2)NC(=O)O[C@@H]2CO[C@H]3OCC[C@H]32)OC2CCCC2)cc1` [Compound 117], the IC50 with HIV-1 (strain IIIB) (setting [1]) lay in the range of 500 to 1000 nM. Besides, at HIV-1 protease (setting [2]), the Ki was over 100 nM.
The corresponding values for `CC(C)ON(CC(O)C(Cc1ccccc1)NC(=O)OC1COC2OCCC12)S(=O)(=O)c1ccc2nc(NS(C)(=O)=O)n(Cc3ccccc3)c2c1` (stereo not drawn) [Compound 118] are 500 to 1000 nM and over 100 nM.
In the case of `CNc1cccc(S(=O)(=O)N(C[C@@H](OP(=O)(O)O)[C@H](Cc2ccccc2)NC(=O)O[C@H]2CO[C@H]3OCC[C@H]32)OC2CCCC2)c1` [Compound 119, Phosphate ester of (3R,3aS,6aR)hexahydrofuro[2,3-b]furan-3-yl N-(1S,2R)-3-[[(3-N-methylaminophenyl)sulfonyl](cyclopentyloxy)amino]-1-benzyl-2-hydroxypropylcarbamate], in the test with HIV-1 (strain IIIB) (setting [1]), the IC50 is over 1000 nM. Besides, the Ki on HIV-1 protease (setting [2]) was over 100 nM.
As for `CNC(=O)NCCNc1cccc(S(=O)(=O)N(CC(O)C(Cc2ccccc2)NC(=O)OC2COC3OCCC23)OC2CCCC2)c1` [Compound 121, (3R,3aS,6aR)hexahydrofuro[2,3-b]furan-3-yl N-(1S,2R)-1-benzyl-3-[(cyclopentyloxy)(3-[(2-[(methylamino)carbonyl]aminoethyl)amino]phenylsulfonyl)amino]-2-hydroxypropylcarbamate and (3S,3aR,6aS)hexahydrofuro[2,3-b]furan-3-yl N-(1S,2R)-1-benzyl-3-[(cyclopentyloxy)(3-[(2-[(methylamino)carbonyl]aminoethyl)amino]phenylsulfonyl)amino]-2-hydroxypropylcarbamate], the IC50 in the test with HIV-1 (strain IIIB) (setting [1]) was in the range of 100 to 500 nM. For the same molecule, the Ki on HIV-1 protease (setting [2]) is under 1 nM.
For `COc1cccc(S(=O)(=O)N(C[C@@H](O)[C@H](Cc2ccccc2)NC(=O)O[C@H]2CO[C@H]3OCC[C@H]32)OC2CCCC2)c1` [Compound 123, (3R,3aS,6aR)hexahydrofuro[2,3-b]furan-3-yl N-[(1S,2R)-1-benzyl-3-((cyclopentyloxy)[(3-methoxyphenyl)sulfonyl]amino)-2-hydroxypropyl]carbamate], the IC50 with HIV-1 (strain IIIB) (setting [1]) was at most 100 nM. Moreover, at HIV-1 protease (setting [2]), the Ki is under 1 nM.
Take `Nc1nc2ccc(S(=O)(=O)N(C[C@@H](O)[C@H](Cc3ccccc3)NC(=O)OC3COCOC3)OC3CCCC3)cc2s1` [Compound 125]: the IC50 in the test on HIV-1 (strain IIIB) (setting [1]) was at most 100 nM. Moreover, the Ki on HIV-1 protease (setting [2]) is under 1 nM.
In the case of `CC(C)ON(C[C@@H](O)[C@H](Cc1ccccc1)NC(=O)O[C@H]1CO[C@H]2OCC[C@H]21)S(=O)(=O)c1cccc(N(C)C(=O)OC(C)(C)C)c1` [Compound 126], the IC50 in the test on HIV-1 (strain IIIB) (setting [1]) is over 1000 nM. Besides, at HIV-1 protease (setting [2]), the Ki was over 100 nM.
Consider `CNc1cccc(S(=O)(=O)N(C[C@@H](O)[C@H](Cc2ccccc2)NC(=O)O[C@H]2CO[C@H]3OCC[C@H]32)OC(C)C)c1` [Compound 127], for which the IC50 in the test on HIV-1 (strain IIIB) (setting [1]) is at most 100 nM. Besides, the Ki on HIV-1 protease (setting [2]) was under 1 nM.
Consider `CN(C(=O)OC(C)(C)C)c1cccc(S(=O)(=O)N(C[C@@H](O)[C@H](Cc2ccccc2)NC(=O)O[C@H]2CO[C@H]3OCC[C@H]32)OC2CCCC2)c1` [Compound 128], for which the 50% inhibitory concentration (IC50) with HIV-1 (strain IIIB) (setting [1]) is over 1000 nM. The Ki at HIV-1 protease (setting [2]) was over 100 nM.
For `COC(=O)Nc1nc2cc(S(=O)(=O)N(C[C@@H](O)[C@H](Cc3ccccc3)NC(=O)OC(C)(C)C)OC3CCCC3)ccc2[nH]1` [Compound 130, tert-Butyl-N-((1S,2R)-1-benzyl-3-(cyclopentyloxy)(2-[(methoxycarbonyl)amino]benzimidazol-5-ylsulfonyl)amino-2-hydroxypropyl)carbamate] the same measures were at most 100 nM and under 1 nM.
For `CC(C)(C)OC(=O)N[C@@H](Cc1ccccc1)[C@H](O)CN(OC1CCCC1)S(=O)(=O)c1ccc2[nH]c(=O)[nH]c2c1` [Compound 131, tert-Butyl-N-((1S,2R)-1-benzyl-3-(cyclopentyloxy)(2-oxybenzimidazol-5-ylsulfonyl)amino-2-hydroxypropyl)carbamate], the IC50 with HIV-1 (strain IIIB) (setting [1]) is at most 100 nM. Also, the Ki at HIV-1 protease (setting [2]) was under 1 nM.
As to `COc1ccc(S(=O)(=O)N(C[C@@H](O)[C@H](Cc2ccccc2)NC(=O)OC2CO[C@H]3OCC[C@@H]23)OC2CCCCC2)cc1` (stereo partly drawn) [Compound 134, (3R,3aS,6aR)hexahydrofuro[2,3-b]furan-3-yl N-((1S,2R)-1-benzyl-3-(cyclohexyloxy)[(4-methoxyphenyl)sulfonyl]amino-2-hydroxypropyl)carbamate], the IC50 in the test with HIV-1 (strain IIIB) (setting [1]) is at most 100 nM. The inhibitory constant (Ki) on HIV-1 protease was under 1 nM.
Regarding `O=C(N[C@@H](Cc1ccccc1)[C@H](O)CN(OC1CCCC1)S(=O)(=O)c1cccc(OCC(=O)N2CCOCC2)c1)O[C@H]1CO[C@H]2OCC[C@H]21` [Compound 135, (3R,3aS,6aR)hexahydrofuro[2,3-b]furan-3-yl N-[(1S,2R)-1-benzyl-3-((cyclopentyloxy)[3-(2-morpholino-2-oxoethoxy)phenyl]sulfonylamino)-2-hydroxypropyl]carbamate], the concentration for half-maximal inhibition (IC50) in the test on HIV-1 (strain IIIB) (setting [1]) was at most 100 nM. For the same molecule, the Ki on HIV-1 protease (setting [2]) lay in the range of 1 to 10 nM.
For the molecule `NC(=O)COc1cccc(S(=O)(=O)N(C[C@@H](O)[C@H](Cc2ccccc2)NC(=O)OC2CO[C@H]3OCC[C@@H]23)OC2CCCC2)c1` (stereo partly drawn) [Compound 136, (3R,3aS,6aR)hexahydrofuro[2,3-b]furan-3-yl N-(1S,2R)-3-[[3-(2-amino-2-oxoethoxy)phenyl]sulfonyl(cyclopentyloxy)amino]-1-benzyl-2-hydroxypropylcarbamate], in the test with HIV-1 (strain IIIB) (setting [3]), the IC50 was at most 100 nM. For the same molecule, the Ki on HIV-1 protease (setting [2]) is under 1 nM.
For `CON(C)C(=O)COc1cccc(S(=O)(=O)N(C[C@@H](O)[C@H](Cc2ccccc2)NC(=O)OC2CO[C@H]3OCC[C@@H]23)OC2CCCC2)c1` (stereo partly drawn) [Compound 137, (3R,3aS,6aR)hexahydrofuro[2,3-b]furan-3-yl N-((1S,2R)-1-benzyl-3-(cyclopentyloxy)[(3-2-[methoxy(methyl)amino]-2-oxoethoxyphenyl)sulfonyl]amino-2-hydroxypropyl)carbamate], the IC50 in the test with HIV-1 (strain IIIB) (setting [1]) is at most 100 nM. The inhibitory constant (Ki) on HIV-1 protease (setting [2]) was under 1 nM.
As for `O=C(N[C@@H](Cc1ccccc1)[C@H](O)CN(OC1CCCC1)S(=O)(=O)c1ccc2c(c1)OCO2)OC1CO[C@H]2OCC[C@@H]12` (stereo partly drawn) [Compound 138, (3R,3aS,6aR)hexahydrofuro[2,3-b]furan-3-yl N-(1S,2R)-3-[(1,3-benzodioxol-5-ylsulfonyl)(cyclopentyloxy)amino)-1-benzyl-2-hydroxypropylcarbamate], the IC50 in the test on HIV-1 (strain IIIB) (setting [1]) was at most 100 nM. In addition, the Ki at HIV-1 protease was under 1 nM.
Consider `O=C(N[C@@H](Cc1ccccc1)[C@H](O)CN(OC1CCCC1)S(=O)(=O)c1ccc2c(c1)OCCO2)OC1CO[C@H]2OCC[C@@H]12` (stereo partly drawn) [Compound 139, (3R,3aS,6aR)hexahydrofuro[2,3-b]furan-3-yl N-(1S,2R)-1-benzyl-3-[(cyclopentyloxy)(2,3-dihydro-1,4-benzodioxin-6-ylsulfonyl)amino]-2-hydroxypropylcarbamate], for which, in the test with HIV-1 (strain IIIB) (setting [1]), the IC50 is at most 100 nM. Also, at HIV-1 protease, the Ki was under 1 nM.
As to `COc1ccc(S(=O)(=O)N(C[C@@H](O)[C@H](Cc2ccccc2)NC(=O)OC2CO[C@H]3OCC[C@@H]23)OC2CCCC2)cc1OC` (stereo partly drawn) [Compound 140, (3R,3aS,6aR)hexahydrofuro[2,3-b]furan-3-yl N-((1S, 2R)-1-benzyl-3-(cyclopentyloxy)[(3,4-dimethoxyphenyl)sulfonyl]amino-2-hydroxypropyl)carbamate], the IC50 with HIV-1 (strain IIIB) (setting [1]) is at most 100 nM. Besides, the Ki on HIV-1 protease (setting [2]) is under 1 nM.
Turning to `CC(C)Oc1ccc(S(=O)(=O)N(C[C@@H](O)[C@H](Cc2ccccc2)NC(=O)OC2CO[C@H]3OCC[C@@H]23)OC2CCCC2)cc1` (stereo partly drawn) [Compound 141, (3R,3aS,6aR)hexahydrofuro[2,3-b]furan-3-yl N-((1S,2R)-1-benzyl-3-(cyclopentyloxy)[(4-isopropoxyphenyl)sulfonyl]amino-2-hydroxypropyl)carbamate], the IC50 with HIV-1 (strain IIIB) (setting [3]) was over 1000 nM. The Ki on HIV-1 protease (setting [2]) is under 1 nM.
With `CC(C)Oc1cccc(S(=O)(=O)N(C[C@@H](O)[C@H](Cc2ccccc2)NC(=O)OC2CO[C@H]3OCC[C@@H]23)OC2CCCC2)c1` (stereo partly drawn) [Compound 142, (3R,3aS,6aR)hexahydrofuro[2,3-b]furan-3-yl N-((1S,2R)-1-benzyl-3-(cyclopentyloxy)[(3-isopropoxyphenyl)sulfonyl]amino-2-hydroxypropyl)carbamate], in the test with HIV-1 (strain IIIB) (setting [3]), the IC50 lay within 100 to 500 nM. The Ki on HIV-1 protease (setting [2]) is under 1 nM.
As to `O=C(N[C@@H](Cc1ccccc1)[C@@H](CN(OC1CCCC1)S(=O)(=O)c1ccc2c(c1)OCO2)OP(=O)(O)O)O[C@H]1CO[C@H]2OCC[C@H]21` [Compound 143, (3R,3aS,6aR)hexahydrofuro[2,3-b]furan-3-yl N-[(1S,2R)-3-[(1,3-benzodioxol-5-ylsulfonyl)(cyclopentyloxy)amino]-1-benzyl-2-(phosphonooxy)propyl]carbamate], in the test with HIV-1 (strain IIIB) (setting [1]), the IC50 was at most 100 nM. Moreover, the Ki on HIV-1 protease (setting [2]) is under 1 nM.
As to `O=C(N[C@@H](Cc1ccccc1)[C@@H](CN(OC1CCCC1)S(=O)(=O)c1ccc2c(c1)OCCO2)OP(=O)(O)O)O[C@H]1CO[C@H]2OCC[C@H]21` [Compound 144, (3R,3aS,6aR)hexahydrofuro[2,3-b]furan-3-yl N-[(1S,2R)-1-benzyl-3-[(cyclopentyloxy)(2,3-dihydro-1,4-benzodioxin-6-ylsulfonyl)amino]-2-(phosphonooxy)propyl]carbamate], in the test on HIV-1 (strain IIIB) (setting [1]), the IC50 was at most 100 nM. The molecule also showed a Ki on HIV-1 protease of under 1 nM.
